Experimental data as given in PMC6843786, “Temporin-SHa and Its Analogs as Potential Candidates for the Treatment of Helicobacter pylori” (Biomolecules, 2019).
Where two headings read alike, the source gives them in different places. Non-standard residues stand in square brackets, D forms with d. Residues, ends and D or L forms follow the SMILES beside them.

Legend:
[1] = test system: total lipids extracted from H. pylori (ATCC 43504); assay: Lipid insertion assay (lipid monolayer, critical pressure of insertion); parameters: species or system biophysical; details: peptide 1 µM, PBS pH 7.4, from the line fits of Figure 4
Protocol: Peptide-lipid interaction was measured using reconstituted lipid monolayer at the air-water interface as previously described. Total lipids were extracted from overnight cultures of H. pylori (ATCC 43504) using Folch extraction procedure as previously described. Extracted total lipids were dried, resolubilized in chloroform:methanol (2:1, v/v) and stored at -20 °C under nitrogen. For peptide-lipid interaction assay, total lipid extract was spread using a 50 μL Hamilton's syringe at the surface of 800 μL of sterile PBS creating a lipid monolayer at the air-water interface. Lipids were added until the surface pressure reached the desired value. […] The variation of the surface pressure caused by peptide injection was then continuously monitored using a fully automated microtensiometer (μTROUGH SX, Kibron Inc., Helsinki, Finland) until reaching equilibrium (maximal surface pressure increase being usually obtained after 15-25 min). […] Variation of surface pressure was plotted as a function of initial surface pressure and the critical pressure of insertion of each peptide into H. pylori lipids was calculated as the theoretical value of initial pressure of lipid monolayer not permissive to peptide insertion, i.e., giving a variation of pressure equal to 0 mN/m.

N87 cells = assay: In vitro toxicity assay using human gastric cells (resazurin); format: cell-based
Protocol: [26] Human gastric cells N87 (ATCC CRL-5822) were cultured in RPMI-1640 medium supplemented with 10% fetal calf serum (FCS), 1% L-glutamine and 1% antibiotics (all from Invitrogen, Carlsbad, CA, USA) and were routinely seeded onto 25 cm^2 flasks maintained in a 5% CO2 incubator at 37 °C. For the toxicity assay, cells grown on 25 cm^2 flasks were detached using trypsin–EDTA solution (from Thermofisher), counted using Mallasez counting chamber and seeded into 96-well cell culture plates (Greiner Bio-one) at approximately 10^4 cells per well. The cells were left to grow for 48–72 h at 37 °C in a 5% CO2 incubator until they reached confluence. Plates were then aspirated and increasing concentrations of peptides were added to the cells for 48 h at 37 °C in a 5% CO2 incubator, volume of water corresponding to the volume of peptides being used as negative control. At the end of the incubation, wells were aspirated, and cell viability was evaluated using resazurin-based in vitro toxicity assay kit (Sigma-Aldrich) following manufacturer’s instructions. Briefly, resazurin stock solution was diluted 1:10 in sterile PBS containing calcium and magnesium (PBS^++, pH 7.4) and empty wells were filled with 100 µL of the diluted solution. After 4 h incubation at 37 °C, fluorescence intensity was measured using microplate reader (Synergy Mx, Biotek) with an excitation wavelength of 530 nm and an emission wavelength of 590 nm. The fluorescence values were normalized by the controls and expressed as percent viability.

H. pylori (ATCC 43504) [2] = assay: MIC after digestion by pepsin (resistance to pepsin); details: 4 h at 37 °C with pepsin 1 mg/mL in HCl pH 2
Protocol: (§1) Briefly, after the growth of H. pylori in liquid culture the optical density (OD) of the bacterial suspensions were read at 600 nm and adjusted to one. Stock solutions of the peptides at 1 mM were prepared in sterile water. Bacteria were diluted in medium to reach bacterial density around 10^5 bacteria/mL. One-hundred microliters per well of bacterial suspension were then added into sterile polypropylene 96-well microplates (Greiner BioOne, Paris, France) and exposed to increasing concentrations of peptides (from zero to 100 µM, 1:2 serial dilution). […] Plates were incubated at 37 °C for 24 h for H. pylori (ATCC 43504) and for 4–7 days for the clinical strains. H. pylori was tested in microaerophilic conditions generated using micro-anaerobic BD GasPak system. At the end of the incubation, OD600nm was measured using microplate reader (Synergy Mx, Biotek, Colmar, France). The MIC was defined as the lowest concentration of drug that inhibited visible growth of the organism. Experiments were conducted in independent triplicate (n = 3).
(§2) It is also rich with mucus to protect it from the aggressive acidity. For this reason, the impact of mucins and pepsin on the activity of the peptides was investigated. The impact of the gastric mucins on peptide activity was evaluated using a combination of commercial porcine stomach mucins MUC2 and MUC3 (Sigma–Aldrich) at a final concentration of 1 mg/mL sterilized using 0.2 µm filter. This concentration was used based on the estimated concentration of mucins present in the mucus in vivo [27]. The effect of mucins on peptides activity was evaluated by MIC and by time killing assay as explained below. The resistance of the peptides to pepsin was tested as previously described with some changes. […] This concentration was used since it corresponds the pepsin concentration in the stomach (0.5–1 mg/mL).

H. pylori (ATCC 43504) [3] = test system: H. pylori (ATCC 43504)
From the text: (§3) H. pylori used in this study were either the reference strain obtained from the American Type Culture Collection (ATCC 43504) or clinical strains received frozen from our collaborator Josette Raymond from Hospital Cochin, Paris. Strains were obtained from patients who underwent a gastroendoscopy performed for various gastro-intestinal disorders according to the recommendations of Haute Autorité de Santé (HAS). During the endoscopy, biopsy samples were taken from antrum and corpus. Samples were then crushed, and the material was used for bacterial culture and molecular methods. An antibiogram was performed and strains were then frozen at -80 °C in a broth with 10% glycerol. Bacteria were cultured as previously described. Briefly, H. pylori (ATCC 43504) was cultured in brain heart infusion (BHI) and incubated at 37 °C for 16 h in microaerophilic condition in BD GasPak EZ using BD GasPak EZ CampyPak container system sachets (BD Biosciences, Le Pont-de-Claix, France). For clinical strains, a sample from the frozen bacteria was streaked on Blood Agar (Base) (Sigma-Aldrich, Illkirch-Graffenstaden, France) supplemented with 5% horse defibrinated blood (Fisher Scientific, Les Ulis, France) and 2% isovitale-X (Fisher Scientific, Illkirch-Graffenstaden, France). The petri dishes were then incubated at 37 °C for 4–7 days in microaerophilic condition. Then, a colony is transferred to 3 mL Mueller Hinton (MH) broth supplemented with 10% fetal bovine serum (FBS) and 2% isovitale-X. The cultures were then incubated for 4–7 days until the bacteria grow before further experiments.
as §1

[4] = test system: clinical strains of H. pylori; details: for MIC: MH + 10% FBS + 2% isovitale-X
From the text: as §3, §1

H. pylori (ATCC 43504) [5] = test system: H. pylori (ATCC 43504); remark: listed apart in the source
Protocol: as §1, §2

H. pylori (ATCC 43504) [6] = assay: Membrane permeabilization assay (propidium iodide); details: not told
Protocol: Bacterial membrane permeabilization was evaluated using the cell-impermeable DNA/RNA probe propidium iodide as previously explained. Logarithmic growing bacterial suspension of H. pylori (ATCC 43504) was prepared from overnight bacterial suspension after 1:10 dilution. After 3 h incubation at 37 °C, in microaerophilic condition, bacterial suspensions were centrifuged for 5 min at 3000× g. Cell pellets were then resuspended in sterile PBS at about […]. Propidium iodide (solution at 1 mg/mL, Sigma Aldrich) was then added to the suspension at a final concentration of 60 µM. 100 µL of this suspension were then transferred into 96-well black plates and were exposed to increasing concentrations of peptides obtained by serial dilution (from zero to 100 µM, 1:2 dilution). […] Kinetics of fluorescence variations (excitation at 530 nm and emission at 590 nm) were then recorded over 240 min of incubation at 37 °C in micro-aerobic condition using a microplate reader (Biotek, Synergy Mx). The effect of the peptides on the membrane integrity was expressed in percentage of permeabilization, CTAB at 300 µM being used as positive control giving 100% permeabilization. All experiments were done in triplicate.

CC[C@H](C)[C@H](NC(=O)[C@@H](C)NC(=O)[C@H](CO)NC(=O)[C@H](CC(C)C)NC(=O)[C@@H](N)Cc1ccccc1)C(=O)N[C@H](C(=O)NCC(=O)N[C@@H](CCSC)C(=O)N[C@@H](CC(C)C)C(=O)NCC(=O)N[C@@H](CCCCN)C(=O)N[C@@H](CC(C)C)C(=O)N[C@@H](Cc1ccccc1)C(N)=O)C(C)C [NST2, H-Phe^1-Leu^2-Ser^3-D-Ala^4-Ile^5-Val^6-Gly^7-Met^8-Leu^9-Gly^10-Lys^11-Leu^12-Phe^13-NH2] (H-FLS[dA]IVGMLGKLF-NH2)
critical pressure of insertion (CPI) [1]: 37.86 mN/m
IC50 (N87 cells; 48 h incubation, resazurin cell viability, read-out: IC50 on N87 Cells): 1250 ± 240 µM
increase in toxicity to human gastric cells compared to temporin-SHa (N87 cells; from IC50 on N87 cells): around 1.2 fold
MIC after Digestion by Pepsin (H. pylori (ATCC 43504) [2]): >50 µM
MIC on H. pylori (ATCC 43504) (H. pylori (ATCC 43504) [3]; MH medium, 24 h, microaerophilic): 12.5 µM
MIC on H. pylori (ATCC 43504) in MH supplemented with 10% FBS (H. pylori (ATCC 43504) [3]; MH supplemented with 10% FBS): 50 µM
reduction in the antibacterial activity compared to temporin-SHa (H. pylori (ATCC 43504) [3]; from MIC on H. pylori (ATCC 43504)): 4 times
MIC values against resistant clinical strains (span over all strains) ([4]; all resistant clinical strains, MH + 10% FBS): 50 to 100 µM
MIC ([4]; clinical strain BM18, resistance Clari/Metro): 50 µM
MIC ([4]; clinical strain EM68, resistance Clari/Metro): 100 µM
MIC ([4]; clinical strain LN18, resistance Clari): 50 µM
MIC ([4]; clinical strain MF76, resistance Clari/Metro): 50 µM
MIC ([4]; clinical strain MP78, resistance Clari/Metro): 50 µM
MIC ([4]; clinical strain MS67, resistance Clari/Metro): 50 µM
MIC ([4]; clinical strain NM44, resistance Clari/Metro): 50 µM
increase of MIC in the presence of mucins (H. pylori (ATCC 43504) [5]; MUC2 and MUC3 at 1 mg/mL versus no mucins): two
MIC in the Presence of mucins (H. pylori (ATCC 43504) [5]; porcine gastric mucins MUC2 and MUC3 at 1 mg/mL): 25 µM

CC[C@H](C)[C@H](NC(=O)[C@@H](C)NC(=O)[C@H](CO)NC(=O)[C@H](CC(C)C)NC(=O)[C@@H](N)Cc1ccccc1)C(=O)N[C@H](C(=O)N[C@H](C)C(=O)N[C@@H](CCSC)C(=O)N[C@@H](CC(C)C)C(=O)N[C@H](C)C(=O)N[C@@H](CCCCN)C(=O)N[C@@H](CC(C)C)C(=O)N[C@@H](Cc1ccccc1)C(N)=O)C(C)C [NST5, H-Phe^1-Leu^2-Ser^3-D-Ala^4-Ile^5-Val^6-D-Ala^7-Met^8-Leu^9-D-Ala^10-Lys^11-Leu^12-Phe^13-NH2] (H-FLS[dA]IV[dA]ML[dA]KLF-NH2)
critical pressure of insertion (CPI) [1]: 33.99 mN/m
increase in toxicity to human gastric cells compared to temporin-SHa (N87 cells): twice
IC50 (N87 cells; 48 h): 762 ± 235 µM
membrane permeabilization of H. pylori (ranking in words) (H. pylori (ATCC 43504) [6]): weakest permeabilization effect
MIC on H. pylori (ATCC 43504) (H. pylori (ATCC 43504) [3]; ATCC 43504, 24 h): 100 µM

CC[C@H](C)[C@H](NC(=O)[C@H](C)NC(=O)[C@H](CO)NC(=O)[C@H](CC(C)C)NC(=O)[C@@H](N)Cc1ccccc1)C(=O)N[C@H](C(=O)NCC(=O)N[C@@H](CCSC)C(=O)N[C@@H](CC(C)C)C(=O)N[C@@H](C)C(=O)N[C@@H](CCCCN)C(=O)N[C@@H](CC(C)C)C(=O)N[C@@H](Cc1ccccc1)C(N)=O)C(C)C [NSTL7, H-Phe^1-Leu^2-Ser^3-L-Ala^4-Ile^5-Val^6-Gly^7-Met^8-Leu^9-L-Ala^10-Lys^11-Leu^12-Phe^13-NH2] (H-FLSAIVGMLAKLF-NH2)
critical pressure of insertion (CPI) [1]: not able to insert at all
IC50 (N87 cells; 48 h): 2290 ± 762 µM
membrane permeabilization of H. pylori (ranking in words) (H. pylori (ATCC 43504) [6]): weakest permeabilization effect
MIC on H. pylori (ATCC 43504) (H. pylori (ATCC 43504) [3]; ATCC 43504, 24 h): 50 µM
